Laboratory results reported in patent US20220145406A1, “BIOMARKERS, AND USES IN TREATMENT OF VIRAL INFECTIONS, INFLAMMATIONS, OR CANCER” (ABIVAX, priority 2018, published 2022).

Test system: CD4+ T cells
Test: RNAseq differential gene expression
Format: cell-based, human
From the text: All statistical analyses and plots were done with R software v3.5. For normalization and processing, we used edgeR v3.22.1, EDASeq v2.14 and DESeq2 v1.20. We decided to use counts per million (CPM) over transcripts per million (TPM) mainly because TPM discards a lot of information about the original count sizes and thus would have produced too much noise for differential testing. The first step was to filter the data. We considered a gene to be expressed at a reasonable level in a sample if it had at least five counts for each million mapped reads in that sample. For marker selection, we used a type 1^(*) error α threshold set to 5%. enabling a highly flexible approach to the differential analyses despite the lack of replicates. For the same reason, the log2 fold change cutoff was set to 1.5 for both positive and negative values, and the cutoff p-value was typically ≤0.05. Those appropriate cutoffs allowed us to identify differentially expressed genes. The false discovery rate (FDR) values were computed for illustration purposes but were not taken into account in the decision due to the lack of replicates. The first methodology choice was Benjamini and Hochberg. This procedure provides less stringent control of type 1 errors compared to familywise error rate (FWER) procedures (such as the Bonferroni correction). We added an MDS plot for the data with R and edgeR package. The MDS plot produces a plot in which distances between samples correspond to the leading biological coefficient of variation (BCV) between those samples. […] We also produced several volcano plots with R and the EDASeq package. These plots were a good representation of the differential expression (DE) testing in the RNA-Seq experiments. […] The green points highlighted are markers that satisfied our selection criteria (significant in both p-value and log2FC). The yellow points highlighted are genes that satisfied the log2FC criterion but failed the p-value criterion. We retained these points to investigate further even though they had no decisional value.
A full-detailed report describing the complete analysis was submitted to Gene Expression Omnibus (GEO, https://www.ncbi.nlm.nih.gov/geo/query/acc.cgi?acc=GSE116073). Total RNA extraction was performed according to the Qiagen miRNeasy □ kit. RNA concentrations were determined using Qubit[…] fluorometric quantification and purity by the RNA 6000 Bioanalyzer kit (Agilent). RNA-Seq libraries were constructed with the TruSeq stranded mRNA sample preparation (low-throughput protocol) kit from Illumina, according to the manufacturer's instructions. Aliquots of 1.2 μg of total RNA were used for the construction of the libraries. The final cDNA libraries were validated with a Fragment Analyzer (Advanced Analytical, Ankeny, Iowa) and quantified with a KAPA qPCR kit (Kapa Biosystems, Wilmington, Mass.). On the 8 sequencing lanes of a flow cell V4, the 32 libraries were pooled in equal proportions by sets of 4 libraries per lane, denatured with NaOH and diluted to […] before clustering. Cluster formation and primer hybridization and single-end read, 50-cycle sequencing were performed on the cBot and HiSeq 2500 (Illumina, San Diego, Calif.), respectively. Image analysis and base calling were performed using the HiSeq Control Software with the Real-Time Analysis component. Demultiplexing was performed using Illumina's sequencing analysis software. The quality of the data was assessed using FastQC from the Babraham Institute and the Illumina software SAV (Sequence Analysis Viewer). Potential contaminants were investigated with the FastQ Screen software from the Babraham Institute.
In the data preprocessing step, the HiSeq control and real-time analysis software generates image analysis, base calling, and base call quality automatically in real time. “Dirty” raw reads were defined as reads that contained adaptor sequence or high content of unknown bases and low-quality reads. […]

[1] = ABX464_I_vs_DMSO_I, infected CD4 T cells
[2] = ABX464_NI_vs_DMSO_NI, uninfected CD4 T cells
[3] = uninfected CD4+ T cells, ABX464 vs untreated

FC(F)(F)Oc1ccc(Nc2ccc3cccc(Cl)c3n2)cc1 [ABX464, 8-chloro-N-(4-(trifluoromethoxy)phenyl)quinolin-2-amine]
FC CECR1 [1]: 3.412 | FC DPF2 [1]: 3.071 | FC LARS2 [1]: 2.991 | FC LGALS3 [1]: 3.009 | FC NBPF20 [1]: 8.164 | FC NOP9 [1]: 3.02 | FC SCML1 [1]: 7.214 | FC TOR1AIP2 [1]: 14.39 | log2(FC) CECR1 [1]: 1.771 | log2(FC) DPF2 [1]: 1.619 | log2(FC) LARS2 [1]: 1.58 | log2(FC) LGALS3 [1]: 1.589 | log2(FC) NBPF20 [1]: 3.029 | log2(FC) NOP9 [1]: 1.594 | log2(FC) SCML1 [1]: 2.851 | log2(FC) TOR1AIP2 [1]: 3.847 | FC CECR1 [2]: 3.587 | FC DPF2 [2]: 2.95 | FC HELLS [2]: 0.2107 | FC HIST1H1D [2]: 0.3392 | FC HOPX [2]: 3.35 | FC LARS2 [2]: 2.99 | FC MZT2B [2]: 0.3168 | FC NDUFB7 [2]: 0.3486 | FC RPS19BP1 [2]: 0.3377 | FC SCML1 [2]: 9.378 | FC SNORD3A [2]: 0.1318 | FC TOR1AIP2 [2]: 11.2 | log2(FC) CECR1 [2]: 1.843 | log2(FC) DPF2 [2]: 1.561 | log2(FC) HELLS [2]: −2.246 | log2(FC) HIST1H1D [2]: −1.56 | log2(FC) HOPX [2]: 1.744 | log2(FC) LARS2 [2]: 1.58 | log2(FC) MZT2B [2]: −1.658 | log2(FC) NDUFB7 [2]: −1.52 | log2(FC) RPS19BP1 [2]: −1.566 | log2(FC) SCML1 [2]: 3.229 | log2(FC) SNORD3A [2]: −2.924 | log2(FC) TOR1AIP2 [2]: 3.486 | number of upregulated genes (infected CD4+ T cells, ABX464 vs untreated): 9 genes | number of downregulated genes (infected CD4+ T cells, ABX464 vs untreated (FIG. 2E legend)): 6 genes | number of downregulated genes [3]: 6 genes | number of upregulated genes [3]: 7 genes
